{"source": "patent US20090044291A1", "about": "“DROUGHT-RESISTANT PLANTS AND METHOD FOR PRODUCING THE PLANTS” (D-Helix, priority 2006, published 2009)", "key": {"[1]": {"molecular_target": "T1, Mg-chelatase (Arabidopsis thaliana, UniProt Q9FNB0)", "T1 construct": "isolation of intact chloroplasts from 3-week-old gl1 plants; from tissue; host or cells: intact chloroplasts from 3-week-old Arabidopsis gl1 plants", "T1 sequence (Q9FNB0 50-1381)": "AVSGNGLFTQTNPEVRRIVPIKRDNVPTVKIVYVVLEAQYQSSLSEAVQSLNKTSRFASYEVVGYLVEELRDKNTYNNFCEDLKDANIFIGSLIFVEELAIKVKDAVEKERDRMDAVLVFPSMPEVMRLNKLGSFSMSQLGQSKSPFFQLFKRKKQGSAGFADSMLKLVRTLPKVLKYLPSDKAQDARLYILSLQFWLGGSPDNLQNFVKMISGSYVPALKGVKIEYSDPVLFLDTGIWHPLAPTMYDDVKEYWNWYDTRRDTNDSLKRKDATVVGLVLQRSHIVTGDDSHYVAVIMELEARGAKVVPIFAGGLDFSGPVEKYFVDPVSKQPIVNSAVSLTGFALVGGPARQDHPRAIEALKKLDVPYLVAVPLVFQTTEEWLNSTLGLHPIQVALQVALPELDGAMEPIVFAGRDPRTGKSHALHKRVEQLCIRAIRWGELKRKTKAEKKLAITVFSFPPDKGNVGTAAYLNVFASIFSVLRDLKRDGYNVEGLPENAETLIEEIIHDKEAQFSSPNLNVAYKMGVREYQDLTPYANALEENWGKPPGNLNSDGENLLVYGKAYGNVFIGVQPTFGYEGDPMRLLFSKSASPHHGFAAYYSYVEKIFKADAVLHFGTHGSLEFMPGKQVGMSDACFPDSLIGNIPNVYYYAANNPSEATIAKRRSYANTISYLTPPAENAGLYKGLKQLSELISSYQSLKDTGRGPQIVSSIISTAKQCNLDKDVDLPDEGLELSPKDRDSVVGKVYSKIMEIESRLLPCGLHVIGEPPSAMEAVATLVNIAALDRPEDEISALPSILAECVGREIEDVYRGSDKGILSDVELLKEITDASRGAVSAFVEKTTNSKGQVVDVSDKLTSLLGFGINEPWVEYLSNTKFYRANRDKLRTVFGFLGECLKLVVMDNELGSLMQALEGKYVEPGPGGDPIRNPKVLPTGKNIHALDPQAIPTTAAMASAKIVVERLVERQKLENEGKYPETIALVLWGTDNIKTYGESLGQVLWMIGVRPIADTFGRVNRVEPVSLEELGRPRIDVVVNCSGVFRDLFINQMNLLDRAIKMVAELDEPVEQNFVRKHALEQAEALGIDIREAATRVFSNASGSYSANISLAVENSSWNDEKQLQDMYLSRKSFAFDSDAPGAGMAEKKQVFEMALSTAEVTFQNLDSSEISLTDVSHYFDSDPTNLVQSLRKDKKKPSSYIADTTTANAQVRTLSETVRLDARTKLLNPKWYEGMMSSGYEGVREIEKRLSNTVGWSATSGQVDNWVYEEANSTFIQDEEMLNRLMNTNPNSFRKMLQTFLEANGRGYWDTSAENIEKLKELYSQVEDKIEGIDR", "test": "Effects of ABA on Mg-chelatase activity in isolated chloroplasts", "format": "biochemical", "details": "chloroplasts pre-incubated 20 min with (±)-ABA", "description": "For the effects of ABA on Mg-chelatase activity in vitro, isolation of intact chloroplasts from 3-week-old gl1 plants and assays of both […] and Mg-chelatase activity were done essentially according to the method of Walker and Weinstein (Walker, C. J. et al., Plant Physiol. 95:1189-1196 (1991); Walker, C. J. et al., Proc. Natl. Acad. Sci. USA 88:5789-5793 (1991)). Briefly, the purified chloroplasts with high degree of intactness were pre-incubated for 20 min in the chloroplast isolation buffer supplemented with different concentrations of (±)-ABA. For assaying Mg-chelatase activity, reactions were started by addition of the ABA-pretreated plastids and terminated by addition of ice-cold acetone. All the manipulations were performed under dim light to prevent porphyrin-mediated photooxidative damage. After centrifugation, the green supernatant was reserved and diluted with 4 ml of 75% (v/v) acetone. The fluorescence of the product was read directly in this acetone extract."}, "[2]": {"test_system": "C-terminal portion of the broad bean ABAR or CHLH", "test": "ABA binding to yeast-expressed C-terminal fragment of broad bean ABAR", "parameters": "species or system Vicia faba", "details": "data not shown", "description": "So we designated it ABAR (for putative abscisic acid receptor). On the basis of the sequencing information, we isolated from broad bean leaves a complementary DNA fragment encoding the carboxy-terminal half of about 770 amino acids of the putative H subunit (CHLH) of the magnesium-protoporphyrin-IX chelatase (Mg-chelatase). CHLH has been reported to have multiple functions in plant cells. In addition to its enzymatic functions as a subunit of the Mg-chelatase in producing photosynthetic apparatus (Walker, C. J. et al., Biochem. J. 327:321-333 (1997)), CHLH has a key function in mediating plastid-to-nucleus signaling (Mochizuki, N. et al., Proc. Natl. Acad. Sci. USA 98:2053-2058 (2001); Surpin, M., et al., Plant Cell S327-S338 (2002); Strand, A., et al., Nature 421:79-83 (2003); Nott, A. et al., Annu. Rev. Plant Biol. 57:730-759 (2006)). […] The information from Vicia faba led us to analyse the functions of ABAR in ABA signalling in Arabidopsis thaliana."}}, "note": "“Also recorded” adds a separate entry of the source.", "data": [{"smiles": "CC1=CC(=O)CC(C)(C)C1(O)/C=C/C(C)=C\\C(=O)O", "note": "(centres unmarked) [ABA, abscisic acid]", "values": [{"measurement": "Mg-chelatase activity", "setting": "[1]", "result": "stimulated; also recorded: enhances"}, {"measurement": "ABA binding", "setting": "[2]", "result": "binds ABA specifically"}]}]}
